According to patent US20260125346A1, “Isoquinolinone Derivatives and 4H-Quinolizinone Derivatives and Pharmaceutical Compositions Thereof for the Treatment of Disease” (BeOne Medicines I GmbH, priority 2023, published 2026):

Key:
Format in all cases: cell-based
[1] = test system: PI3Kα H1047R mutated cell line T-47D cells; assay: Cell Proliferation Assay (CellTiter-Glo), T-47D; conditions: for IC50: Homo sapiens, T47D, 72 h, T-47D, 3 days treatment; for Selectivity: SK-BR-3/T-47D (cell proliferation): cell proliferation IC50 ratio
In short: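 T-47D cells seeded overnight at 3×10^3/well, then exposed 3 days to 9-point 1:3 dilutions, final […] to 1 nM in 0.1% DMSO. CellTiter-Glo luminescence; relative IC50 from percent inhibition versus medium-only and 0.1% DMSO controls, 4-parameter logistic fit.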

WT cell line SK-BR-3 [2] = assay: Phospho-AKT (Ser473) Inhibition Assay (HTRF), SK-BR-3; conditions: Homo sapiens; SK-BR-3, 1 hour treatment; read-out: p-AKT Inhibition assay (S473) IC50 SK-BR-3
In short: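 SK-BR-3 (PI3Kα WT) cells seeded overnight in MEM with insulin, then treated 1 h with 11-point 1:3 dilutions (10 μM to 0.1 nM, 0.1% DMSO). Lysates read for phospho-AKT Ser473 by HTRF after 4 h antibody incubation at room temperature. IC50 from 4-parameter fit, % inhibition normalized to DMSO (max) and 10 μM GDC0077 (min).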

WT cell line SK-BR-3 [3] = assay: Cell Proliferation Assay (CellTiter-Glo), SK-BR-3; conditions: Homo sapiens, 72 h; SK-BR-3, 3 days treatment
In short: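 SK-BR-3 cells treated for 3 days with compound in a 9-point series, final concentrations 10 M to 1 nM in 0.1% DMSO. Viability read by CellTiter-Glo luminescence. Relative IC50 from percent inhibition versus medium-only and DMSO controls, four-parameter logistic fit.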

Cc1cc(C(C)Nc2ccccc2C(=O)O)c2cc(-c3ccc(P(C)(C)=O)cc3)n(C)c(=O)c2c1 (centres unmarked) [Example 79, 2-((1-(3-(4-(dimethylphosphoryl)phenyl)-2,7-dimethyl-1-oxo-1,2-dihydroisoquinolin-5-yl)ethyl)amino)benzoic acid] showed an IC50 [1] of over 10 µM, an IC50 (WT cell line SK-BR-3 [2]) of over 10 µM and an IC50 (WT cell line SK-BR-3 [3]) of over 10 µM.
With CC#Cc1ccc(-c2cc3c(C(C)Nc4ccccc4C(=O)O)cc(C)cc3c(=O)n2C)cc1 (centres unmarked) [Example 52, 2-((1-(2,7-dimethyl-1-oxo-3-(4-(prop-1-yn-1-yl)phenyl)-1,2-dihydroisoquinolin-5-yl)ethyl)amino)benzoic acid] the IC50 [1] was 0.707 µM, the “Selectivity: SK-BR-3/T-47D (cell proliferation)” value (“Selectivity: SK-BR-3/T-47D” below) [1] was over 14 and the IC50 (WT cell line SK-BR-3 [2]) was 7.19 µM. For the same compound, the IC50 (WT cell line SK-BR-3 [3]) was over 10 µM.
Cc1cc(C(C)Nc2ccccc2C(=O)O)c2cc(C#Cc3ccccc3)n(C)c(=O)c2c1 (centres unmarked) [Example 43, 2-((1-(2,7-dimethyl-1-oxo-3-(phenylethynyl)-1,2-dihydroisoquinolin-5-yl)ethyl)amino)benzoic acid] was tested, and the IC50 [1] was 0.62 µM, the “Selectivity: SK-BR-3/T-47D” value [1] was over 16 and the IC50 (WT cell line SK-BR-3 [2]) was 1.64 µM. It also gave an IC50 (WT cell line SK-BR-3 [3]) of over 10 µM.
For Cc1cc(C(C)Nc2ccccc2C(=O)O)c2cc(-c3ccn(-c4ccccc4)c3)n(C)c(=O)c2c1 (centres unmarked) [Example 77, 2-((1-(2,7-dimethyl-1-oxo-3-(1-phenyl-1H-pyrrol-3-yl)-1,2-dihydroisoquinolin-5-yl)ethyl)amino)benzoic acid], the IC50 [1] was 1.4 µM, the “Selectivity: SK-BR-3/T-47D” value [1] was over 7.1 and the IC50 (WT cell line SK-BR-3 [2]) was 2.04 µM. It also gave an IC50 (WT cell line SK-BR-3 [3]) of over 10 µM.
In the case of Cc1cc(C(C)Nc2ccccc2C(=O)O)c2cc(C3=CCN(c4ccccc4)CC3)n(C)c(=O)c2c1 (centres unmarked) [Example 46, 2-((1-(2,7-dimethyl-1-oxo-3-(1-phenyl-1,2,3,6-tetrahydropyridin-4-yl)-1,2-dihydroisoquinolin-5-yl)ethyl)amino)benzoic acid], the IC50 [1] is reported as 0.21 µM, the “Selectivity: SK-BR-3/T-47D” value [1] is reported as over 48 and the IC50 (WT cell line SK-BR-3 [2]) is reported as 5.07 µM. The IC50 (WT cell line SK-BR-3 [3]) was over 10 µM.
Cc1cc(C(C)Nc2ccccc2C(=O)O)c2cc(-c3cccc4cn(C)nc34)n(C)c(=O)c2c1 (centres unmarked) [Example 22, 2-((1-(2,7-dimethyl-3-(2-methyl-2H-indazol-7-yl)-1-oxo-1,2-dihydroisoquinolin-5-yl)ethyl)amino)benzoic acid] gave an IC50 [1] of over 10 µM, an IC50 (WT cell line SK-BR-3 [2]) of over 10 µM and an IC50 (WT cell line SK-BR-3 [3]) of over 10 µM.
For CC(Nc1ccccc1C(=O)O)c1cccc2c(=O)n(C)c(-c3ccccc3)cc12 (centres unmarked) [Example 20, 2-((1-(2-methyl-1-oxo-3-phenyl-1,2-dihydroisoquinolin-5-yl)ethyl)amino)benzoic acid], the IC50 [1] was 0.934 µM, the “Selectivity: SK-BR-3/T-47D” value [1] was over 10.7 and the IC50 (WT cell line SK-BR-3 [2]) was over 10 µM. It also gave an IC50 (WT cell line SK-BR-3 [3]) of over 10 µM.
Cc1cc(C(C)Nc2ccccc2C(=O)O)c2cc(-c3ccccn3)n(C)c(=O)c2c1 (centres unmarked) [Example 36, 2-((1-(2,7-dimethyl-1-oxo-3-(pyridin-2-yl)-1,2-dihydroisoquinolin-5-yl)ethyl)amino)benzoic acid] was tested, and the IC50 [1] was 1.42 µM, the “Selectivity: SK-BR-3/T-47D” value [1] was over 7.04 and the IC50 (WT cell line SK-BR-3 [2]) was over 10 µM. The IC50 (WT cell line SK-BR-3 [3]) was over 10 µM.
For Cc1cc([C@@H](C)Nc2ccccc2C(=O)O)c2cc(-c3cnc(C(C)(C)O)nc3)n(C)c(=O)c2c1 [Example 67, (R)-2-((1-(3-(2-(2-hydroxypropan-2-yl)pyrimidin-5-yl)-2,7-dimethyl-1-oxo-1,2-dihydroisoquinolin-5-yl)ethyl)amino)benzoic acid], the IC50 [1] was 0.279 µM, the “Selectivity: SK-BR-3/T-47D” value [1] was over 36 and the IC50 (WT cell line SK-BR-3 [2]) was over 10 µM. For the same compound, the IC50 (WT cell line SK-BR-3 [3]) was over 10 µM.
In the case of Cc1cc(C(C)Nc2ccccc2C(=O)O)c2cc(-c3ccc4c(c3)C3CC3O4)n(C)c(=O)c2c1 (centres unmarked) [Example 53, 2-((1-(3-(1a,6b-dihydro-1H-cyclopropa[b]benzofuran-5-yl)-2,7-dimethyl-1-oxo-1,2-dihydroisoquinolin-5-yl)ethyl)amino)benzoic acid], the IC50 [1] is reported as 0.815 µM, the “Selectivity: SK-BR-3/T-47D” value [1] is reported as over 12 and the IC50 (WT cell line SK-BR-3 [2]) is reported as 2.53 µM. The IC50 (WT cell line SK-BR-3 [3]) was over 10 µM.
In the case of Cc1cc(C(C)Nc2ccccc2C(=O)O)c2cc(-c3ccc(F)cc3)n(-c3nccs3)c(=O)c2c1 (centres unmarked) [Example 71, 2-((1-(3-(4-fluorophenyl)-7-methyl-1-oxo-2-(thiazol-2-yl)-1,2-dihydroisoquinolin-5-yl)ethyl)amino)benzoic acid], the IC50 [1] is reported as 0.267 µM, the “Selectivity: SK-BR-3/T-47D” value [1] is reported as over 34 and the IC50 (WT cell line SK-BR-3 [2]) is reported as 5.59 µM. It also gave an IC50 (WT cell line SK-BR-3 [3]) of over 10 µM.
In the case of COc1cccc(-c2cc3c(C(C)Nc4ccccc4C(=O)O)cc(C)cc3c(=O)n2C)c1 (centres unmarked) [Example 13, 2-((1-(3-(3-methoxyphenyl)-2,7-dimethyl-1-oxo-1,2-dihydroisoquinolin-5-yl)ethyl)amino)benzoic acid], the IC50 [1] is reported as 0.233 µM, the “Selectivity: SK-BR-3/T-47D” value [1] is reported as over 43 and the IC50 (WT cell line SK-BR-3 [2]) is reported as 3.59 µM. It also gave an IC50 (WT cell line SK-BR-3 [3]) of over 10 µM.
Cc1cc(C(C)Nc2ccccc2C(=O)O)c2cc(-c3cccc(C#N)c3)n(C)c(=O)c2c1 (centres unmarked) [Example 3, 2-((1-(3-(3-cyanophenyl)-2,7-dimethyl-1-oxo-1,2-dihydroisoquinolin-5-yl)ethyl)amino)benzoic acid] was tested, and the IC50 [1] was 0.143 µM, the “Selectivity: SK-BR-3/T-47D” value [1] was over 70 and the IC50 (WT cell line SK-BR-3 [2]) was 4.35 µM. The IC50 (WT cell line SK-BR-3 [3]) was over 10 µM.
Cc1cc(C(C)Nc2ccccc2C(=O)O)c2cc(C#Cc3cnn(C)c3)n(C)c(=O)c2c1 (centres unmarked) [Example 80, 2-((1-(2,7-dimethyl-3-((1-methyl-1H-pyrazol-4-yl)ethynyl)-1-oxo-1,2-dihydroisoquinolin-5-yl)ethyl)amino)benzoic acid] was tested, and the IC50 [1] was 0.254 µM, the “Selectivity: SK-BR-3/T-47D” value [1] was over 39.4 and the IC50 (WT cell line SK-BR-3 [2]) was 3.08 µM. For the same compound, the IC50 (WT cell line SK-BR-3 [3]) was over 10 µM.
Cc1cc(C(C)Nc2ccccc2C(=O)O)c2cc(-c3ccc(C4(O)CCOCC4)cc3)n(C)c(=O)c2c1 (centres unmarked) [Example 73, 2-((1-(3-(4-(4-hydroxytetrahydro-2H-pyran-4-yl)phenyl)-2,7-dimethyl-1-oxo-1,2-dihydroisoquinolin-5-yl)ethyl)amino)benzoic acid] was tested, and the IC50 [1] was 0.171 µM, the “Selectivity: SK-BR-3/T-47D” value [1] was over 59 and the IC50 (WT cell line SK-BR-3 [2]) was over 10 µM. For the same compound, the IC50 (WT cell line SK-BR-3 [3]) was over 10 µM.
In the case of Cc1cc([C@@H](C)Nc2ccccc2C(=O)O)c2cc(-c3ccc(-c4cnn(C)c4)cc3)n(C)c(=O)c2c1 [Example 40, (R)-2-((1-(2,7-dimethyl-3-(4-(1-methyl-1H-pyrazol-4-yl)phenyl)-1-oxo-1,2-dihydroisoquinolin-5-yl)ethyl)amino)benzoic acid], the IC50 [1] is reported as 0.0527 µM, the “Selectivity: SK-BR-3/T-47D” value [1] is reported as over 190 and the IC50 (WT cell line SK-BR-3 [2]) is reported as 0.814 µM. For the same compound, the IC50 (WT cell line SK-BR-3 [3]) was over 10 µM.
With Cc1cc(C(C)Nc2ccccc2C(=O)O)c2cc(-c3ccc(C(C)(C)O)cc3)n(C)c(=O)c2c1 (centres unmarked) [Example 51, 2-((1-(3-(4-(2-hydroxypropan-2-yl)phenyl)-2,7-dimethyl-1-oxo-1,2-dihydroisoquinolin-5-yl)ethyl)amino)benzoic acid] the IC50 [1] was 0.0945 µM, the “Selectivity: SK-BR-3/T-47D” value [1] was over 106 and the IC50 (WT cell line SK-BR-3 [2]) was 6.45 µM. For the same compound, the IC50 (WT cell line SK-BR-3 [3]) was over 10 µM.
With Cc1cc(C(C)Nc2ccccc2C(=O)O)c2cc(/C=C/c3ccccc3)n(C)c(=O)c2c1 (centres unmarked) [Example 44, (E)-2-((1-(2,7-dimethyl-1-oxo-3-styryl-1,2-dihydroisoquinolin-5-yl)ethyl)amino)benzoic acid] the IC50 [1] was 4.77 µM, the “Selectivity: SK-BR-3/T-47D” value [1] was over 2.1 and the IC50 (WT cell line SK-BR-3 [2]) was 2.13 µM. The IC50 (WT cell line SK-BR-3 [3]) was over 10 µM.
In the case of Cc1cc(C(C)Nc2ccccc2C(=O)O)c2cc(-c3ccc(C(F)(F)F)nc3)n(C)c(=O)c2c1 (centres unmarked) [Example 86, 2-((1-(2,7-dimethyl-1-oxo-3-(6-(trifluoromethyl)pyridin-3-yl)-1,2-dihydroisoquinolin-5-yl)ethyl)amino)benzoic acid], the IC50 [1] is reported as 0.375 µM, the “Selectivity: SK-BR-3/T-47D” value [1] is reported as over 26.6 and the IC50 (WT cell line SK-BR-3 [2]) is reported as over 10 µM. The IC50 (WT cell line SK-BR-3 [3]) was over 10 µM.
For Cc1cc(C(C)Nc2ccccc2C(=O)O)c2cc(-c3cccc(C(C)(C)C#N)c3)n(C)c(=O)c2c1 (centres unmarked) [Example 5, 2-((1-(3-(3-(2-cyanopropan-2-yl)phenyl)-2,7-dimethyl-1-oxo-1,2-dihydroisoquinolin-5-yl)ethyl)amino)benzoic acid], the IC50 [1] was 0.52 µM, the “Selectivity: SK-BR-3/T-47D” value [1] was over 19 and the IC50 (WT cell line SK-BR-3 [2]) was 4.62 µM. The IC50 (WT cell line SK-BR-3 [3]) was over 10 µM.
For Cc1cc([C@@H](C)Nc2ccccc2C(=O)O)c2cc(-c3ccccc3)n(C)c(=O)c2c1 [Example 30, (R)-2-((1-(2,7-dimethyl-1-oxo-3-phenyl-1,2-dihydroisoquinolin-5-yl)ethyl)amino)benzoic acid], the IC50 [1] was 0.177 µM, the “Selectivity: SK-BR-3/T-47D” value [1] was over 57 and the IC50 (WT cell line SK-BR-3 [2]) was 2.5 µM. It also gave an IC50 (WT cell line SK-BR-3 [3]) of over 10 µM.
For Cc1cc(C(C)Nc2ccccc2C(=O)O)c2cc(NC(=O)c3ccccc3)n(C)c(=O)c2c1 (centres unmarked) [Example 24, 2-((1-(3-benzamido-2,7-dimethyl-1-oxo-1,2-dihydroisoquinolin-5-yl)ethyl)amino)benzoic acid], the IC50 [1] was 9.34 µM, the “Selectivity: SK-BR-3/T-47D” value [1] was over 1.07 and the IC50 (WT cell line SK-BR-3 [2]) was over 10 µM. For the same compound, the IC50 (WT cell line SK-BR-3 [3]) was over 10 µM.
